The source of these data is patent US10494405B2, “Methods and compositions for the treatment of arthritis” (THE REGENTS OF THE UNIVERSITY OF MICHIGAN, priority 2015, dated 2019).

For orientation: IC50 means the point on the concentration scale where inhibition reaches its midpoint.

Structures are written as SMILES. Numbered stars: 1 amine (or outer) side, 2 acyl side, 3 side chain; on linkers, the order of the positions; unused ones are H or OH. Bridge positions count the residues as written; N and C are the ends. Square brackets hold non-standard residues; d marks the D form. Peptide text beside a SMILES is read from it. CO = O=C([*:1])[*:2]; Nlys = NCCCCNCC(=O)O

One assay deals with SE-activated signaling. The assay can be described thus: Inhibition of SE-activated signaling in vitro. The class given is cell-based. As to conditions: read-out: IC50, inhibitor of SE-activated signaling.
In assay [1] the test system is murine pre-OC cell line RAW 264.7. The assay can be described thus: In vitro osteoclastogenesis, mouse cells (RAW 264.7). The class given is cell-based. An excerpt:
In vitro osteoclastogenesis of murine pre-OC cell line RAW 264.7 in the presence of different doses of BK2.

Another assay relates to human cells. The assay can be described thus: In vitro osteoclastogenesis, human cells. The class given is cell-based.
The subject of the next assay is DBA/1 mice with CIA. The assay can be described thus: Collagen-induced arthritis (CIA) in DBA/1 mice. It counts as in vivo, mouse. How it is done:
A. DBA/1 mice with CIA received weekly ip doses of BK2, 446 pg/gm, or PBS (black) starting on day −1 relative to day of CIA induction, and joint swelling was recorded. N=10 per group. B. DBA/1 mice with CIA received a total of 4 weekly ip doses of BK2, 446 pg/gm, or PBS (black) starting at day 20 relative to day of CIA induction, at the time of arthritis onset, and joint swelling was recorded. Arrows indicate the treatment days. N=10 per group. C. DBA/1 mice with CIA received weekly sq doses of BK2446 pg/gm, or PBS (black) starting at day −1 relative to day of CIA induction, and joint swelling was recorded. N=10 per group. […] E. DBA/1 mice with CIA received a total of 4 weekly sq doses of BK2, 446 pg/gm, or PBS (black) starting at day 20 relative to day of CIA induction, at the time of arthritis onset, and joint swelling was recorded. Arrows indicate the treatment days. N=10 per group.

As for `C[C@H](NC(=O)CN1CCCCNC(=O)NCCCCN(C(=O)[C@@H](N)Cc2c[nH]c3ccccc23)CC(=O)N[C@@H](CC(=O)O)C(=O)N[C@@H](CCCCN)C(=O)N[C@@H](CO)C1=O)C(N)=O` [BK2, Trp-c[Gly(4-aminobutyl)-Asp-Lys-Ser-Gly(4-aminobutyl)]-Ala-NH2] (H-W[Nlys]DKS[Nlys]A-NH2; linker 2-6 via CO), the IC50 with SE-activated signaling was roughly 10 mM. Besides, the “IC50 of anti-osteoclastogenic effect in vitro” value (in assay [1]; in the assay on human cells) was “pM-range” in each case. Also, in the assay with DBA/1 mice with CIA (CIA mice), the “Inhibition of bone destruction in vivo” value was “inhibition effect”. For the same molecule, the “Inhibition of osteoclastogenesis in vivo” value in the assay on DBA/1 mice with CIA (CIA mice) was “inhibition effect”. Moreover, in the assay on DBA/1 mice with CIA (DBA/1 mice, weekly ip or sq 446 pg/gm, from day -1 or day 20), the “Inhibition effect on CIA (joint swelling)” value is “highly potent (picogram-range doses) inhibition effect”. Also, the “Radiological scores (bone destruction)” value in the assay with DBA/1 mice with CIA (FIG. 3D: weekly sq 446 pg/gm starting day -1) and in the assay on DBA/1 mice with CIA (FIG. 3F: 4 weekly sq doses 446 pg/gm starting day 20 (arthritis onset)) was “protective effect on bone destruction” in each case.
